Assay results from patent US12466803B2 (priority 2021, dated 2025).

Test system: phospho (S293) BCKDHA in human skeletal myocytes
Experiment: Phospho BCKDHA Alpha Surefire Cell Assay
Assay type: cell-based
Details: 60 minutes with compound, geometric mean

IC50 | Structure (SMILES)
> 24000 nM | C[C@@H]1CCc2cc(-c3c(C(=O)O)sc4cc(Cl)ccc34)ccc2O1 (single isomer, unassigned) [Example 42, 6-chloro-3-(2-methyl-3,4-dihydro-2H-1-benzopyran-6-yl)-1-benzothiophene-2-carboxylic acid, ENANT-2]
3600 nM | C[C@@H]1CCc2cc(-c3c(C(=O)O)sc4cc(F)ccc34)c(F)cc2O1 (single isomer, unassigned) [Example 69, 6-fluoro-3-(7-fluoro-2-methyl-3,4-dihydro-2H-1-benzopyran-6-yl)-1-benzothiophene-2-carboxylic acid, ENANT-2]
> 60000 nM | C[C@@H]1CCc2cc(-c3c(C(=O)O)sc4ccccc34)ccc2O1 (single isomer, unassigned) [Example 45, 3-(2-methyl-3,4-dihydro-2H-1-benzopyran-6-yl)-1-benzothiophene-2-carboxylic acid, ENANT-1]

Same assay, conditions: Homo sapiens, 1 h, 60 minutes with compound, geometric mean

Structure (SMILES) | IC50
CC1CCc2c(ccc(-c3c(C(=O)O)sc4cc(F)ccc34)c2F)O1 (stereo not shown) [Example 76, 6-fluoro-3-(5-fluoro-2-methyl-3,4-dihydro-2H-1-benzopyran-6-yl)-1-benzothiophene-2-carboxylic acid] | 3600 nM
C[C@@H]1CCc2cc(-c3c(C(=O)O)sc4cc(Cl)ccc34)ccc2O1 (single isomer, unassigned) [Example 41, 6-chloro-3-(2-methyl-3,4-dihydro-2H-1-benzopyran-6-yl)-1-benzothiophene-2-carboxylic acid, ENANT-1] | > 40000 nM
O=C(O)c1sc2cc(F)ccc2c1-c1c(F)cc(F)cc1Cl [Example 148, 3-(2-chloro-4,6-difluorophenyl)-6-fluoro-1-benzothiophene-2-carboxylic acid] | 4000 nM
O=C(O)c1sc2cc(Cl)ccc2c1-c1cc(F)c(F)cc1F [Example 133, 6-chloro-3-(2,4,5-trifluorophenyl)-1-benzothiophene-2-carboxylic acid] | 730 nM
Cc1c(F)c(-c2c(C(=O)O)sc3cc(Cl)ccc23)cc(F)c1Cl [Example 136, ammonium 6-chloro-3-(4-chloro-2,5-difluoro-3-methylphenyl)-1-benzothiophene-2-carboxylate] | 120 nM
Cc1c(F)ccc(-c2c(C(=O)O)sc3cc(Cl)ccc23)c1F [Example 141, 6-chloro-3-(2,4-difluoro-3-methylphenyl)-1-benzothiophene-2-carboxylic acid] | 230 nM
COc1ccc(F)c(-c2c(C(=O)O)sc3cc(F)ccc23)c1F [Example 55, 3-(2,6-difluoro-3-methoxyphenyl)-6-fluoro-1-benzothiophene-2-carboxylic acid] | 1100 nM

Further lines, results first:

IC50 | Structure (SMILES)
160 nM | COc1c(Cl)ccc(-c2c(C(=O)O)sc3cc(Cl)ccc23)c1F [Example 138, 6-chloro-3-(4-chloro-2-fluoro-3-methoxyphenyl)-1-benzothiophene-2-carboxylic acid]
4400 nM | O=C(O)c1sc2cc(F)ccc2c1-c1ccc(F)c(F)c1F [Example 19, 6-Fluoro-3-(2,3,4-trifluorophenyl)-1-benzothiophene-2-carboxylic acid]
64 nM | COc1c(Cl)cc(F)c(-c2c(C(=O)O)sc3cc(F)ccc23)c1F [Example 52, 3-(4-chloro-2,6-difluoro-3-methoxyphenyl)-6-fluoro-1-benzothiophene-2-carboxylic acid]
23000 nM | O=C(O)c1sc2cc(F)ccc2c1-c1cc(F)c(F)c(O)c1F [Example 22, 6-Fluoro-3-(2,4,5-trifluoro-3-hydroxyphenyl)-1-benzothiophene-2-carboxylic acid]
400 nM | O=C(O)c1sc2cc(F)ccc2c1-c1cc(F)c(F)c(Cl)c1F [Example 24, 3-(3-Chloro-2,4,5-trifluorophenyl)-6-fluoro-1-benzothiophene-2-carboxylic acid]
110 nM | Cc1c(Cl)ccc(-c2c(C(=O)O)sc3cc(Cl)ccc23)c1F [Example 146, 6-chloro-3-(4-chloro-2-fluoro-3-methylphenyl)-1-benzothiophene-2-carboxylic acid]
